# Reference: patent publication US20250091992A1, “NOVEL COMPOUNDS AND USES THEREOF” (KANNA HEALTH LIMITED, priority 2021, published 2025)
# Like-named read-outs stand apart in the source and are kept apart here.
# Assays:
# TNF-α = assay: LPS-induced cytokine release from human PBMCs: TNF-α; format: cell-based
# Method: (§1) Data were tested for normality.
# IL-10 = assay: LPS-induced cytokine release from human PBMCs: IL-10; format: cell-based; settings: high concentration (10.0 μM)
# Method: as §1
# IL-1β = assay: LPS-induced cytokine release from human PBMCs: IL-1β; format: cell-based; settings: high concentration (10.0 μM)
# Method: as §1
# [1] = molecular target: T1, human serotonin transporter (Homo sapiens, UniProt P31645); settings: for inhibition: 10 µM;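 on all read-outs here: Read-out: uptake of tritium-labelled serotonin, measured by scintillation counting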
# T1 sequence (P31645 whole entry): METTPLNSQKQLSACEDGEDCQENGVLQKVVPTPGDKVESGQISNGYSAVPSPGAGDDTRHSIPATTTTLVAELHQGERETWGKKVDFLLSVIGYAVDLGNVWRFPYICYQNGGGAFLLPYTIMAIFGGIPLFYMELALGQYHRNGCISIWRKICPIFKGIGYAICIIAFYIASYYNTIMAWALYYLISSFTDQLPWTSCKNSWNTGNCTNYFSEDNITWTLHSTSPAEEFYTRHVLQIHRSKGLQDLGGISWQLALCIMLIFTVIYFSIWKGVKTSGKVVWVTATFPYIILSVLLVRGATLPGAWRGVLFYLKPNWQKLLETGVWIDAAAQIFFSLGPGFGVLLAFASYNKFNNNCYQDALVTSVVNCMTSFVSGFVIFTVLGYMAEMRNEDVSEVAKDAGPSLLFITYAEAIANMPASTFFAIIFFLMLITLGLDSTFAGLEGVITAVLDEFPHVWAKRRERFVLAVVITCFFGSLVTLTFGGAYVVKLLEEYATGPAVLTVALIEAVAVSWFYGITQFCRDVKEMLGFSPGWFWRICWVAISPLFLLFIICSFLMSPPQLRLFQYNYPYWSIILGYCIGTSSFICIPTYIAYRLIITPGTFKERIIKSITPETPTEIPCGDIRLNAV
# Method: (§6) Following incubation, [^3H] serotonin uptake was quantified by a standard scintillation counting method.
# [2] = molecular target: human recombinant PDE-4B1 (Homo sapiens, UniProt Q07343); assay: PDE4-B1 assay (Compounds of Formula I), SPA; format: biochemical; settings: for IC50: 4-parameter logistical fit, two technical replicates
# human recombinant PDE-4B1, sequence (Q07343 whole entry): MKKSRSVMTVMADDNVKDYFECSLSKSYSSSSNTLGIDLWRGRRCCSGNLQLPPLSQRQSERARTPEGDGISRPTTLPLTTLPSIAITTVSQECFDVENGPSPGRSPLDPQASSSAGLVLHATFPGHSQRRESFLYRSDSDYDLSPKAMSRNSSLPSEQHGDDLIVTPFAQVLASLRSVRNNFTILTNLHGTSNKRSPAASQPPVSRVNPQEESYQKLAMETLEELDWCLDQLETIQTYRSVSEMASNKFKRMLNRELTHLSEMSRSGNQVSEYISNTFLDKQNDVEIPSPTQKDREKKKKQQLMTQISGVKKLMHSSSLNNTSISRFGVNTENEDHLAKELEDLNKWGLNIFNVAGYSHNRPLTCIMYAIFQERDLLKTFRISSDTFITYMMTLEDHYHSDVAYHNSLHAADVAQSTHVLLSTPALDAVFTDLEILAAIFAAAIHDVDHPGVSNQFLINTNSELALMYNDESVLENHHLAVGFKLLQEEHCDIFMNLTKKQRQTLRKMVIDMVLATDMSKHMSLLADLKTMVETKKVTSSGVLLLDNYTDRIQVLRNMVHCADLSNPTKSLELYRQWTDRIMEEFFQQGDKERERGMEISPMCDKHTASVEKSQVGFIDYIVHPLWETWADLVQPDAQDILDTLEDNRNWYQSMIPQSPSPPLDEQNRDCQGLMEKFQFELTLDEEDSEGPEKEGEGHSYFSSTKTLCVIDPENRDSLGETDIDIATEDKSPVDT
# Method: (§2) 20 mins after addition of human recombinant PDE-4B1 (1.2 IEU) or PDE-4D2 (1.5 IEU), SPA beads were added and incubated at 22° C. for a further 30 mins. [^3H]5′AMP was quantified by a standard scintillation counting method.
# [3] = molecular target: human recombinant PDE-4D2 (Homo sapiens, UniProt Q08499); assay: PDE4-D2 assay (Compounds of Formula I), SPA; format: biochemical; settings: for IC50: 4-parameter logistical fit, two technical replicates
# human recombinant PDE-4D2, sequence (Q08499 303-809): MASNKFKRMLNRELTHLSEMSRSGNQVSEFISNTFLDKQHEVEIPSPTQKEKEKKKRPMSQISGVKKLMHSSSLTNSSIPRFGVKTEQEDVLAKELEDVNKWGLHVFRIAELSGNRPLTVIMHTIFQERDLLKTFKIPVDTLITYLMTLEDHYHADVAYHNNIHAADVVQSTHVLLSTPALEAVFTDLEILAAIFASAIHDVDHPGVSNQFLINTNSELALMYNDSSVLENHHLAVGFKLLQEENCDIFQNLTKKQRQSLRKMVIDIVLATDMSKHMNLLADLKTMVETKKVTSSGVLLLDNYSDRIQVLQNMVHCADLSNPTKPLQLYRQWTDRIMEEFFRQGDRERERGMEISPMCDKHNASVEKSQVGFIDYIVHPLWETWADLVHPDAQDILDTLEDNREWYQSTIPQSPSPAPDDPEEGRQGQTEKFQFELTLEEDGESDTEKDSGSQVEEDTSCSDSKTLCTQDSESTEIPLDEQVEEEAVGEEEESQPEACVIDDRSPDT
# Method: as §2
# [4] = Hepatocyte stability study; format: in vitro ADME; settings: human hepatocytes
# Method: The compounds were added at a concentration of 1 μM to human hepatocytes (0.5×10^6 cells/ml in Williams E media supplemented with 2 mM L-glutamine and 25 mM HEPES) and incubated for 0, 5, 10, 20, 40 and 60 min at 37° C. Five replicates were performed for each compound.
# [5] = test system: time spent in centre of open field; assay: Open field test; format: in vivo, male C57Bl/6J mice; settings: for Time spent in centre during open field test, Low dose (0.3 mg/kg): 0.3 mg/kg i.p.; for Time spent in centre during open field test, Low dose (0.3 mg/kg) / Time spent in centre during open field test, High dose (3 mg/kg): 60 minutes before test; for Time spent in centre during open field test, High dose (3 mg/kg): 3 mg/kg i.p.
# Method: The open field test is routinely applied in order to assess a compounds ability to affect anxiety, and as such as positive result may be indicative of a compounds anxiolytic activity (Kraeuter et al., 2019).
# (§3) Male C57Bl/6J mice (3-4 months), were assigned to one of three groups receiving either test compound (0.3, 3.0 mg/kg) or vehicle (0.5% (w/v) methyl cellulose) via the i.p. route, 60 minutes before experimental examination.
# (§4) The test compounds used were compound identification numbers 6, 13 and 21 from Table 1.
# The duration of time the mouse spent in central, periphery and corners were quantified, with duration in the central area depicted as the primary outcome measure.
# (§5) Data were tested for normality and outliers were removed.
# in vivo = assay: in vivo; design: species or system male C57Bl/6J mice; settings: male, C57Bl/6J, mouse, ip, 30 mg/kg
# Method: Groups of 18 male C57Bl/6J mice (weighing between 22.7 and 27.3 g) received a single administration of test compound (30 mg/kg; i.p.) in methylcellulose (0.5% w/v) at a nominal concentration of […].
# Three mice from each dose group were subject to cardiac puncture under general anesthesia at 0.25, 0.50, 1.00, 1.50, 2.00 and 4.00 hours post-dose and plasma samples generated for application of standard LC-MS/MS bioanalytical methods.
# Quantitation of compound concentration was derived from reference calibration data. Pharmacokinetic data were derived from serial plasma concentrations.
# time spent immobile = assay: Forced swim test; format: in vivo, male C57Bl/6J mice; settings: 60 minutes before test; for Time spent immobile during forced swim test, Low dose (0.3 mg/kg): 0.3 mg/kg i.p.; for Time spent immobile during forced swim test, High dose (3 mg/kg): 3 mg/kg i.p.
# Method: The forced swim test is a standard model for examination of potential antidepressant-like activity and represents futility, despair, and motivation behavioural domains.
# as §3, §4
# The duration of time the mouse spent immobile during the forced swim test was measured.
# as §5
# [6] = molecular target: T1, human serotonin transporter; assay: cell-based
# Method: as §6
# [7] = naturally occurring; cited from earlier work
# PDE-4B = PDE-4B (Homo sapiens, UniProt Q07343); settings: Harvey et al., 2011; cited from earlier work
# PDE-4B, sequence (Q07343 whole entry, species assumed): as the sequence (Q07343 whole entry) above
# 5-HT transporter = 5-HT transporter (Homo sapiens, UniProt P31645); settings: Harvey et al., 2011; cited from earlier work
# 5-HT transporter, sequence (P31645 whole entry, species assumed): as the sequence (P31645 whole entry) above
# [8] = medium (1.0 μM) and high (10.0 μM) concentration
Structure (SMILES),IC50 [1] [nM],AUC(0-inf) (in vivo) [ng·h/mL],Cmax (in vivo) [ng/mL],Tmax (in vivo) [min],half-life (in vivo) [min],IC50 [6] [µM],IC50 [2] [µM],IC50 [3] [µM],also measured
COc1ccc([C@@]23CCC(=O)C[C@@H]2N(C)CC3)cc1OCC1CC1 [Compound 1],–,–,–,–,–,–,–,–,Inhibition of TNF-α release compared to vehicle (significance) (TNF-α; [8]): inhibited TNF-α release at a statistically significant level; Inhibition of IL-10 (significance) (IL-10): statistically significantly inhibited; Inhibition of IL-β (significance) (IL-1β): statistically significantly inhibited
CCCCOc1cc([C@@]23CCC(=O)C[C@@H]2N(C)CC3)ccc1OC [Compound 2],30,–,–,–,–,–,–,–,Inhibition of TNF-α release compared to vehicle (significance) (TNF-α; [8]): inhibited TNF-α release at a statistically significant level; Inhibition of IL-10 (significance) (IL-10): statistically significantly inhibited
[2H]C([2H])([2H])Oc1cc([C@@]23CCC(=O)C[C@@H]2N(C)CC3)ccc1OC [Compound 5],–,–,–,–,–,–,–,–,"inhibition at 30 µM ([2]; 30 μM, relative to Ro 20-1724): 88%; inhibition [1]: 98%; inhibition at 30 µM ([3]; 30 μM, relative to Ro 20-1724): 94%; half-life compared with non-deuterated mesembrine [4]: shorter half-life; hepatocyte CLint at 1 μM ([4]; 1 μM, 37° C., read-out: Qualified Clint): 21.1 µL/min/1e6 cells; half-life at 1 μM ([4]; 1 μM, 37° C., read-out: Qualified t1/2): 65.8 min"
CCOc1cc([C@@]23CCC(=O)C[C@@H]2N(C)CC3)ccc1OC [Compound 6],2,1960,2610,15,33.6,–,–,–,"Time spent in centre during open field test, Low dose (0.3 mg/kg) [5]: 9.4 s; Time spent in centre during open field test, High dose (3 mg/kg) [5]: 8.6 s; Time spent immobile during forced swim test, Low dose (0.3 mg/kg) (time spent immobile): 116 s; Time spent immobile during forced swim test, High dose (3 mg/kg) (time spent immobile): 88 s"
COc1ccc([C@@]23CCC(=O)C[C@@H]2N(C)CC3)cc1OC1CCCC1 [Compound 11],800,1040,796,15,56.4,–,–,–,Inhibition of TNF-α release compared to vehicle (significance) (TNF-α; all concentrations): inhibit TNF-α release at a statistically significant level; Inhibition of IL-10 (significance) (IL-10): statistically significantly inhibited; Inhibition of IL-β (significance) (IL-1β): statistically significantly inhibited
C=CCOc1cc([C@@]23CCC(=O)C[C@@H]2N(C)CC3)ccc1OC [Compound 13],20,2100,2330,15,40.2,–,–,–,"Time spent in centre during open field test, Low dose (0.3 mg/kg) [5]: 10.6 s; Time spent in centre during open field test, High dose (3 mg/kg) [5]: 8.8 s; inhibition [1]: 100%; Time spent immobile during forced swim test, Low dose (0.3 mg/kg) (time spent immobile): 119 s; Time spent immobile during forced swim test, High dose (3 mg/kg) (time spent immobile): 138 s"
C#CCOc1cc([C@@]23CCC(=O)C[C@@H]2N(C)CC3)ccc1OC [Compound 15],–,–,–,–,–,< 3,< 3,< 3,–
CCOc1ccc([C@@]23CCC(=O)C[C@@H]2N(C)CC3)cc1OCC [Compound 21],30,1830,2430,15,34.2,–,–,–,"Time spent in centre during open field test, Low dose (0.3 mg/kg) [5]: 13.7 s; Time spent in centre during open field test, High dose (3 mg/kg) [5]: 9.8 s; Time spent in the centre compared to vehicle (significance) ([5]; low dose of 0.3 mg/kg): statistically significant increase; inhibition [1]: 91%; Time spent immobile during forced swim test, Low dose (0.3 mg/kg) (time spent immobile): 105 s; Time spent immobile during forced swim test, High dose (3 mg/kg) (time spent immobile): 118 s"
CCOc1ccc([C@@]23CCC(=O)C[C@@H]2N(C)CC3)cc1OC1CCCC1 [Compound 27],400,1400,831,15,58.2,–,–,–,Inhibition of TNF-α release compared to vehicle (significance) (TNF-α; [8]): inhibited TNF-α release at a statistically significant level; inhibition [1]: 96%
COc1ccc([C@]23CCC(=O)C=C2N(C)CC3)cc1OC [Compound 40],–,–,–,–,–,> 3,> 3,> 3,–
COc1ccc([C@@]23CCC(=O)C=C2N(C)CC3)cc1OC [Compound 41],–,–,–,–,–,< 3,> 3,> 3,–
COc1ccc([C@@]23CCC(=O)C=C2N(C)CC3)cc1OC1CCCC1 [Compound 42],–,–,–,–,–,> 3,> 3,< 3,–
C=CCOc1cc([C@@]23CCC(=O)C=C2N(C)CC3)ccc1OC [Compound 43],–,–,–,–,–,> 3,> 3,> 3,–
CCOc1ccc(C23C=CC(=O)CC2N(C)CC3)cc1OCC (centres unmarked) [Compound 44],–,–,–,–,–,> 3,< 3,< 3,–
"COc1ccc([C@@]23CCC(=O)C[C@@H]2N(C)CC3)cc1OC [Mesembrine, mesembrine, reference compound]",–,–,–,–,–,–,–,–,"solubility in water [7]: scarcely soluble in water; Qualified Clint ([4]; 1 μM, 37° C.): 16.3 μl/min/10^6 cells; Qualified t1/2 ([4]; 1 μM, 37° C.): 84.8"
COc1ccc([C@@]23C=C[C@@H](O)C[C@@H]2N(C)CC3)cc1OC [mesembrenol],–,–,–,–,–,–,–,–,activity against PDE-4B (PDE-4B): potently active; activity in 5-HT transporter binding assay (5-HT transporter): potently active
